In US20160038468A1 (priority 2013, published 2016):
Values after ≈ are worked out from the molar mass of the structure shown. Read-outs that look alike come from different tables or passages of the source.

Assays:
Atopobium vaginae = experiment: Agar dilution MIC (CLSI), Atopobium vaginae vaginal isolates; assay type: cell-based; conditions: for Number of strains with indicated MIC: 62 samples
Mobiluncus spp = experiment: Agar dilution MIC (CLSI), Mobiluncus spp vaginal isolate; assay type: cell-based; conditions: read-out: Minimal Inhibitory Concentration (MIC)
Gardnerella vaginalis = experiment: Agar dilution MIC (CLSI), Gardnerella vaginalis vaginal isolates; assay type: cell-based; conditions: for Number of strains with indicated MIC: 100 samples
Mobiluncus all species = experiment: Agar dilution MIC (CLSI), Mobiluncus all species; assay type: cell-based
M. curtisii = experiment: Agar dilution MIC (CLSI), M. curtisii vaginal isolates; assay type: cell-based; conditions: 14 samples
[1] = test system: B. thetaiotaomicron, ATCC 29741; conditions: agar dilution testing, from CLSI Table 5; cited from earlier work
B. fragilis, ATCC 25285 = conditions: agar dilution testing, from CLSI Table 5; cited from earlier work
Anaerococcus tetradius = experiment: Agar dilution MIC (CLSI), Anaerococcus tetradius vaginal isolates; assay type: cell-based; conditions: for MIC: read-out: Minimal Inhibitory Concentration (MIC)
Finegoldia magna = experiment: Agar dilution MIC (CLSI), Finegoldia magna vaginal isolates; assay type: cell-based; conditions: for MIC: read-out: Minimal Inhibitory Concentration (MIC)
[2] = test system: Megasphaera-like bacteria; experiment: Agar dilution MIC (CLSI), Megasphaera-like bacteria vaginal isolates; assay type: cell-based; conditions: for MIC: read-out: Minimal Inhibitory Concentration (MIC)
[3] = Fannyhessea vaginae, # tested 62
[4] = Gardnerella vaginalis, # tested 107
[5] = number (%) of isolates, # tested 40
[6] = Anaerococcus tetradius, # tested 21
[7] = number (%) of isolates, # tested 20

## Cc1ncc([N+](=O)[O-])n1CCO [Metronidazole]
Atopobium vaginae
  activity against Atopobium vaginae: limited activity
Atopobium vaginae; [3]
  MIC50: 128 µg/mL (≈ 748 µM)
  MIC90: > 128 µg/mL
Atopobium vaginae; MIC 8 μg/ml
  Number of strains with indicated MIC: 2
Atopobium vaginae; MIC 16 μg/ml
  Number of strains with indicated MIC: 5
Atopobium vaginae; MIC 32 μg/ml
  Number of strains with indicated MIC: 10
Atopobium vaginae; MIC 64 μg/ml
  Number of strains with indicated MIC: 8
Atopobium vaginae; MIC >[…]
  Number of strains with indicated MIC: 24
Atopobium vaginae; MIC […] μg/ml
  Number of strains with indicated MIC: 1
Atopobium vaginae; MIC […]
  Number of strains with indicated MIC: 12
Mobiluncus spp
  MIC: 0.03 µg/mL (≈ 0.175 µM)
Gardnerella vaginalis
  activity against G vaginalis: limited activity
Gardnerella vaginalis; [4]
  MIC50: 64 µg/mL (≈ 374 µM)
  MIC90: > 128 µg/mL
Gardnerella vaginalis; MIC 8 μg/ml
  Number of strains with indicated MIC: 12
Gardnerella vaginalis; MIC 16 μg/ml
  Number of strains with indicated MIC: 16
Gardnerella vaginalis; MIC 32 μg/ml
  Number of strains with indicated MIC: 14
Gardnerella vaginalis; MIC 64 μg/ml
  Number of strains with indicated MIC: 15
Gardnerella vaginalis; MIC >[…]
  Number of strains with indicated MIC: 34
Gardnerella vaginalis; MIC […]
  Number of strains with indicated MIC: 6
Mobiluncus all species
  activity on Mobiluncus species: substantially less active
Mobiluncus all species; # tested 40
  MIC50: 8 µg/mL (≈ 46.7 µM)
  MIC90: > 128 µg/mL
Mobiluncus all species; [5]
  Intermediate: 1 (3) μg/ml
  Susceptible: 22 (55) μg/ml
Mobiluncus all species; number (%) of isolates, # tested 40, resistance: rifaximin >32, metronidazole >32, clindamycin >8 μg/ml
  Resistant: 17 (42) μg/ml
M. curtisii; MIC 64 μg/ml
  Number of strains with indicated MIC: 3
M. curtisii; MIC >[…]
  Number of strains with indicated MIC: 11
[1]
  Acceptable Range of MIC for control strain: 0.5 to 2 µg/mL
B. fragilis, ATCC 25285
  Acceptable Range of MIC for control strain: 0.25 to 1 µg/mL
Anaerococcus tetradius; Anaerococcus tetradius, isolate 601103V 21
  MIC: 1 µg/mL (≈ 5.84 µM)
Anaerococcus tetradius; Anaerococcus tetradius, isolate 601175V I
  MIC: 1 µg/mL (≈ 5.84 µM)
Anaerococcus tetradius; Anaerococcus tetradius, isolate 601202V 11
  MIC: 1 µg/mL (≈ 5.84 µM)
Anaerococcus tetradius; Anaerococcus tetradius, isolate 601212V 14
  MIC: 1 µg/mL (≈ 5.84 µM)
Anaerococcus tetradius; Anaerococcus tetradius, isolate 601221V 12
  MIC: 128 µg/mL (≈ 748 µM)
Anaerococcus tetradius; Anaerococcus tetradius, isolate 601242V 17
  MIC: 1 µg/mL (≈ 5.84 µM)
Anaerococcus tetradius; Anaerococcus tetradius, isolate 601256V 9
  MIC: 1 µg/mL (≈ 5.84 µM)
Anaerococcus tetradius; Anaerococcus tetradius, isolate 601287V V
  MIC: 1 µg/mL (≈ 5.84 µM)
Anaerococcus tetradius; Anaerococcus tetradius, isolate 601305V J
  MIC: 1 µg/mL (≈ 5.84 µM)
Anaerococcus tetradius; Anaerococcus tetradius, isolate 601326V H
  MIC: 1 µg/mL (≈ 5.84 µM)
Anaerococcus tetradius; Anaerococcus tetradius, isolate 601340V 25
  MIC: 1 µg/mL (≈ 5.84 µM)
Anaerococcus tetradius; Anaerococcus tetradius, isolate 601342V N
  MIC: 1 µg/mL (≈ 5.84 µM)
Anaerococcus tetradius; Anaerococcus tetradius, isolate 601368V 42
  MIC: 1 µg/mL (≈ 5.84 µM)
Anaerococcus tetradius; Anaerococcus tetradius, isolate 601369V 12
  MIC: 1 µg/mL (≈ 5.84 µM)
Anaerococcus tetradius; Anaerococcus tetradius, isolate 601379V 25
  MIC: 1 µg/mL (≈ 5.84 µM)
Anaerococcus tetradius; Anaerococcus tetradius, isolate 601401V T
  MIC: 1 µg/mL (≈ 5.84 µM)
Anaerococcus tetradius; Anaerococcus tetradius, isolate 601429V 15
  MIC: 1 µg/mL (≈ 5.84 µM)
Anaerococcus tetradius; Anaerococcus tetradius, isolate 601450V 22
  MIC: 1 µg/mL (≈ 5.84 µM)
Anaerococcus tetradius; Anaerococcus tetradius, isolate 602375V 22
  MIC: 1 µg/mL (≈ 5.84 µM)
Anaerococcus tetradius; [6]
  MIC50: 1 µg/mL (≈ 5.84 µM)
  MIC90: 1 µg/mL (≈ 5.84 µM)
Anaerococcus tetradius; MIC […], 21 samples
  Number of strains with indicated MIC: 1
Finegoldia magna; # tested 20
  MIC Range: 0.5 to 4 µg/mL
Finegoldia magna; Finegoldia magna, isolate 301303V D
  MIC: 0.5 µg/mL (≈ 2.92 µM)
Finegoldia magna; Finegoldia magna, isolate 601205V 39
  MIC: 4 µg/mL (≈ 23.4 µM)
Finegoldia magna; Finegoldia magna, isolate 601214V F
  MIC: 2 µg/mL (≈ 11.7 µM)
Finegoldia magna; Finegoldia magna, isolate 601275V c
  MIC: 4 µg/mL (≈ 23.4 µM)
Finegoldia magna; Finegoldia magna, isolate 601276V 23
  MIC: 2 µg/mL (≈ 11.7 µM)
Finegoldia magna; Finegoldia magna, isolate 601283V 14
  MIC: 2 µg/mL (≈ 11.7 µM)
Finegoldia magna; Finegoldia magna, isolate 601293V 27
  MIC: 2 µg/mL (≈ 11.7 µM)
Finegoldia magna; Finegoldia magna, isolate 601295V 25
  MIC: 1 µg/mL (≈ 5.84 µM)
Finegoldia magna; Finegoldia magna, isolate 601298V 30
  MIC: 2 µg/mL (≈ 11.7 µM)
Finegoldia magna; Finegoldia magna, isolate 601308V 24
  MIC: 2 µg/mL (≈ 11.7 µM)
Finegoldia magna; Finegoldia magna, isolate 601315V 17
  MIC: 4 µg/mL (≈ 23.4 µM)
Finegoldia magna; Finegoldia magna, isolate 601315V 17A
  MIC: 4 µg/mL (≈ 23.4 µM)
Finegoldia magna; Finegoldia magna, isolate 601320V 24
  MIC: 4 µg/mL (≈ 23.4 µM)
Finegoldia magna; Finegoldia magna, isolate 601323V K
  MIC: 0.5 µg/mL (≈ 2.92 µM)
Finegoldia magna; Finegoldia magna, isolate 601330V c
  MIC: 4 µg/mL (≈ 23.4 µM)
Finegoldia magna; Finegoldia magna, isolate 601335V c1
  MIC: 1 µg/mL (≈ 5.84 µM)
Finegoldia magna; Finegoldia magna, isolate 601340V 27
  MIC: 4 µg/mL (≈ 23.4 µM)
Finegoldia magna; Finegoldia magna, isolate 601359V c
  MIC: 4 µg/mL (≈ 23.4 µM)
Finegoldia magna; Finegoldia magna, isolate 601363V 6
  MIC: 1 µg/mL (≈ 5.84 µM)
Finegoldia magna; Finegoldia magna, isolate 601367V c
  MIC: 4 µg/mL (≈ 23.4 µM)
Finegoldia magna; Finegoldia magna, # tested 20
  MIC50: 2 µg/mL (≈ 11.7 µM)
  MIC90: 4 µg/mL (≈ 23.4 µM)
Finegoldia magna; [7]
  Intermediate: 0 µg/mL
  Susceptible: 20 (100) μg/ml
[2]; 427510 h, isolate 427507 H
  MIC: 0.25 µg/mL (≈ 1.46 µM)
[2]; # tested 25
  MIC50: 0.25 µg/mL (≈ 1.46 µM)
  MIC90: 0.25 µg/mL (≈ 1.46 µM)
[2]; isolate 426749 T
  MIC: 0.25 µg/mL (≈ 1.46 µM)
[2]; isolate 426766 Q
  MIC: 0.25 µg/mL (≈ 1.46 µM)
[2]; isolate 426788 8a
  MIC: 0.25 µg/mL (≈ 1.46 µM)
[2]; isolate 426788 C
  MIC: 0.25 µg/mL (≈ 1.46 µM)
[2]; isolate 427522 8
  MIC: 0.25 µg/mL (≈ 1.46 µM)
[2]; isolate 600770 O
  MIC: 0.25 µg/mL (≈ 1.46 µM)
[2]; isolate 600790 N
  MIC: 0.25 µg/mL (≈ 1.46 µM)
[2]; isolate 600831 9
  MIC: 0.25 µg/mL (≈ 1.46 µM)
[2]; isolate 600837 18
  MIC: 0.25 µg/mL (≈ 1.46 µM)
[2]; isolate 600861 P
  MIC: 0.25 µg/mL (≈ 1.46 µM)
[2]; isolate 602236 E3
  MIC: 50.2 µg/mL (≈ 294 µM)
[2]; isolate 602241 D
  MIC: 0.25 µg/mL (≈ 1.46 µM)
[2]; isolate 602241 F
  MIC: 0.25 µg/mL (≈ 1.46 µM)
[2]; isolate 602270 A
  MIC: 0.25 µg/mL (≈ 1.46 µM)
[2]; isolate 602282 I
  MIC: 0.25 µg/mL (≈ 1.46 µM)
[2]; isolate 602302 22
  MIC: 0.25 µg/mL (≈ 1.46 µM)
[2]; isolate 602305 I
  MIC: 0.25 µg/mL (≈ 1.46 µM)
[2]; isolate 602324 8
  MIC: 0.25 µg/mL (≈ 1.46 µM)
[2]; isolate 602672 12A
  MIC: 0.25 µg/mL (≈ 1.46 µM)
